In patent US20210024483A1, “HETEROCYLCOALKENYL DERIVATIVES USEFUL AS AGONISTS OF THE GPR120 AND / OR GPR40” (Janssen Pharmaceutica NV, priority 2018, published 2021):

Target: T1, short form of the GPR120 receptor (Homo sapiens, UniProt Q5NUL3)
T1 construct: host or cells: PathHunter CHO-K1 GPR120S beta-Arrestin Cell Line
T1 sequence (Q5NUL3 1-361): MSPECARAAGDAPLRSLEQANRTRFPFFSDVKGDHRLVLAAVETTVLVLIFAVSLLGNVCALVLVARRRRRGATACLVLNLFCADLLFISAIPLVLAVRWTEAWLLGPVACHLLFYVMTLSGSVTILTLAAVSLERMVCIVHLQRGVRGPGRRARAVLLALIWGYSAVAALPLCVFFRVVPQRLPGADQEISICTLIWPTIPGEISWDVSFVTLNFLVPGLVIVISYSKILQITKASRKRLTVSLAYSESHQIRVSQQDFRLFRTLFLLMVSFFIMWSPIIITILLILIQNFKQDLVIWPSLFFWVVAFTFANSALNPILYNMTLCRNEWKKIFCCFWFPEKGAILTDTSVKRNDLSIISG
Experiment: Human GPR120 DiscoveRx PathHunter Beta-Arrestin Assay, Procedure B
Type: cell-based
Settings: PathHunter CHO-K1 GPR120S cells, 5000 cells/well
From the text: Human GPR120 DiscoveRx PathHunter® Beta-Arrestin Assay
The binding of an agonist (medium/long chain fatty acids or small molecule agonists) to the G-protein-coupled receptor GPR120 activates phospholipase C, leading to release of intracellular Ca^+2 through the generation of inositol 1,4,5-trisphosphate (InsP3 or IP3). GPR120 activation can also trigger intracellular signaling via recruitment of Beta-Arrestin. In the present method, agonist-induced activation of the human GPR120 receptor is monitored through the use of PathHunter® CHO-K1 GPR120 Beta-Arrestin Cell Line engineered by DiscoveRx, as detailed below. The cell lines were designed to co-express both the ProLink/Enzyme Donor (PK)-tagged GPCR and the Enzyme […] (EA)-tagged Beta-Arrestin fusion proteins. Upon GPR120 receptor stimulation/activation, the EA-tagged Beta-Arrestin portion is translocated to the tagged receptor, where the two enzyme fragments are brought within close proximity. Under these conditions, these fragments can interact and form an active Beta-gal enzyme complex through Enzyme Fragment Complementation (EFC). This active Beta-gal complex can enzymatically hydrolyse the substrate to produce a detectable light signal; therefore, activation as a function of agonist concentration can be expressed as an EC50 value to determine relative compound activities. This in vitro assay therefore serves to assess compound agonist activity of the GPR120.
In Procedure β-arrestin B the cells used were PathHunter® CHO-K1 GPR120S β-Arrestin Cell Line, expressing the short form of the GPR120 receptor (Accession #[…]), with 5000 cells/well.
The selected CHO-K1 GPR120 β-Arrestin cells were cultured in Ham's F12 media supplemented with 10% fetal bovine serum (FBS), 1% Glutamine, 1× p/s, 800 μg/mL G418 and 300 μg/mL Hygromycin B (for selection). Cell stocks were maintained and grown in a sub-confluent state using standard cell culture procedures. The day before the experiment, the cells were harvested with non-enzymatic cell dissociation buffer and re-suspended in complete growth media at the desired concentration. A Corning 384-plate was then seeded with the proper number of cells in a volume of 25 μL, per well. The seeded plates were incubated overnight at 37° C.
On the day of the experiment, the Assay Buffer containing (a) HBSS with Ca^++ and Mg^++, (b) 20 mM HEPES, and (c) 0.1% BSA stabilizer (pH 7.4) was prepared. The growth medium was gently removed from the cell plates and 20 μL of Assay Buffer added to each well. The plate was then incubated at 37° C. for 60 min. Test compounds were serially diluted in Assay Buffer to desired concentrations (more particularly to one or more of the following μM concentrations: 25, 12.5, 6.25, 3.12, 1.56, 0.78, 0.39, 0.19, 0.10, 0.05, 0.02, 0.01). Five μL of compound dilution was then added to each well and the plate incubated at 37° C. for 90 min. The detection reagents were prepared according to the manufacture's instruction. Twelve μL of the detection reagents were added to each well and the plate incubated at room temperature for 60 min.
The plates were read on an EnVision instrument, using Protocol name: Luminescence, Plate type: 384 Costar, Measurement height: 3 mm, Measurement time: 1 s, Aperture: 384 Plate aperture. The % Activity relative to the positive control was calculated using the following equation:
The % Activity values were plotted versus the concentration of test compound and fitted to a sigmoidal dose-response curve with a Hill slope=1 (fixed value) using nonlinear regression with GraphPad Prism 5.0 to calculate the EC50 values. The Fitting Equation was: Y=Bottom+(Top−Bottom)/(1+10^((Log EC50−X)*HillSlope)), where X is the log of the concentration and Y is the response.

EC50: 243 nM
SMILES: Cc1c(CCC(=O)O)ccc(OCC2=C(c3ccc(Cl)cc3)COCC2)c1C [ID No. 745, 3-[4-[[5-(4-chlorophenyl)-3,6-dihydro-2H-pyran-4-yl]methoxy]-2,3-dimethyl-phenyl]propanoic acid]
